Values joined by “and” are separate entries in the source; they are usually repeats but may differ in a detail not shown here. Equal values may be shown once.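 Five concentrations, 48 hours, 96-well plates. Here, GI50 denotes the concentration required for 50% inhibition of growth. TGI marks complete inhibition of growth.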 A value given as a limit tells only on which side of the number the result lay.

This experiment concerns MDA-MB-468 breast. Description: inhibition of tumour cell growth, NCI panel, 48 h.
For `CN(C)CCNc1cc(-c2ccccc2)nc2ccccc12`, the GI50 was 3850 nM and the TGI worked out at 16800 nM.

On to `COc1cccc(-c2cc(=O)c3cc(N(C)C)ccc3[nH]2)c1`, for which the TGI is > 100000 nM and 59200 nM.

In the case of `COc1ccc(/C(=C2\O[C@@H]([C@H]3COC(C)(C)O3)[C@H]3OC(C)(C)O[C@@H]23)c2cc(OC)c(OC)c(OC)c2)cc1O`, the GI50 was 14500 nM and the TGI was 34100 nM.

For `Nc1ccn(C2O[C@H](CO)[C@@H](O)[C@@H]2O)c(=O)n1` (some centres undefined), the GI50 was greater than 100000 nM and the TGI was greater than 100000 nM.

With `O=c1oc2ccc(F)cc2c(=O)n1-c1ccc(F)cc1F`, the GI50 is 2760 nM and the TGI is 7780 nM.

As for `O=C(Nc1ccc(N2CCNCC2)cc1)c1[nH]ncc1Nc1cc(Oc2ccccc2)ncn1`, the GI50 is 1990 nM and the TGI amounted to 4830 nM.

On to `CCCCC/C(C=C(C#N)C#N)=C/c1ccccc1`, for which the GI50 is 10200 nM and the TGI amounted to 27200 nM.

As for `NCC(=O)NS(=O)(=O)OC[C@H]1O[C@@H](n2cnc3c(N)ncnc32)[C@H](O)[C@@H]1O`, the GI50 was 742 nM and the TGI is 2560 nM.

Regarding `O=[N+]([O-])/C=C\c1ccc(Cl)c(Cl)c1`, the GI50 is 1790 nM and the TGI turned out to be 3760 nM.

On to `N#C/C(=C1C=C/C(=N/O)C(Br)=C/1)c1ccccc1`, for which the GI50 was 1530 nM and the TGI is 15000 nM.

With `CCNCCNc1cc(-c2ccc(C(=O)OC)cc2)c(C#N)c2nc3ccccc3n12`, the GI50 is 1370 nM and the TGI came to 2860 nM.

As for `O=C1c2cccc(NCCN=Cc3cc(O)ccc3O)c2C(=O)c2c(NCCN=Cc3cc(O)ccc3O)cccc21`, the GI50 was 584 nM and the TGI was found to be 2370 nM.

For `COc1ccc(C2=NN(C(=O)c3cc(OC)c(OC)c(OC)c3)C(c3ccc(C#N)cc3)C2)cc1OC` (centres undefined), the GI50 is 419 nM and the TGI came to 2890 nM.

Consider `CCCCCc1ccc(S(=O)(=O)Nc2cccc(-c3csc(NC(=O)CCCCCN4CCN(C)CC4)n3)c2)cc1`, for which the GI50 was 1790 nM and the TGI was 3460 nM.

Turning to `COC(=O)CCCCN=Cc1c(O)c(O)c(C(C)C)c2cc(C)c(-c3c(C)cc4c(C(C)C)c(O)c(O)c(C=NCCCCC(=O)OC)c4c3O)c(O)c12`, the GI50 is 780 nM and the TGI was 3060 nM.

As for `O=C1c2c(c3c4ccccc4n(CCCCCCBr)c3c3[nH]c4ccccc4c23)C(=O)N1O`, the GI50 is 2820 nM and the TGI turned out to be 8180 nM.

With `CC[CH2][Pb]([CH2]CC)([CH2]CC)[O]C(=O)C(F)(F)F`, the GI50 is 55.1 nM and the TGI was 153 nM.

`Oc1ccc(CSc2nnc(-c3cnccn3)n2-c2ccccc2)c2cccnc12`: the GI50 is 970 nM and the TGI was greater than 20000 nM.

Regarding `COc1cc(OC)cc(-c2ccc(-c3ccc(C(=N)N)o3)o2)c1`, the GI50 is 2400 nM and the TGI is 4730 nM.

Turning to `O=C(CI)NC1Oc2ccccc2-c2oc(=O)c(-c3ccccc3)cc21` (centres undefined), the GI50 was 1790 nM and the TGI worked out at 4320 nM.

For `O=C(O)CCCCC(CCSCc1ccccc1)SCc1ccccc1` (centres undefined), the GI50 is 45100 nM and the TGI was greater than 91400 nM.

`Cn1c(N2NC(=O)C(N=Nc3ccc(S(N)(=O)=O)cc3)C2=O)nc(-c2ccco2)c(C#N)c1=O` (centres undefined): the GI50 was 1610 nM and the TGI stood at 6730 nM.

Take `C[C@]12CC[C@H](O)CC1=CC[C@@H]1[C@@H]2CC[C@]2(C)C(c3cccnc3)=CC[C@@H]12`: the GI50 is 26900 nM and the TGI was greater than 100000 nM.

For the compound `N#CSCC1CC(O)(c2ccccc2)C(c2ccccc2)C(c2ccc(Cl)cc2)O1` (centres undefined), the GI50 was 1440 nM and the TGI came out at 2850 nM.

For `COc1cc(O)c2c(c1)/C=C/C[C@H](O)[C@H](O)C(=O)/C=C\C[C@H](C)OC2=O`, the GI50 is 3850 nM and 5600 nM; the TGI was 13300 nM and 20700 nM.

As for `CC1=C(C(=O)Nc2ccc3[nH]ncc3c2)C(c2ccc3ccccc3c2)CC(=O)N1` (centres undefined), the GI50 is 13900 nM and the TGI is greater than 25000 nM.

On to `Cc1ccc(S(=O)(=O)N(CCOc2ccc(/C(N)=N/Cl)cc2)CCOc2ccc(/C(N)=N\Cl)cc2)cc1`, for which the GI50 was 3980 nM and the TGI was determined as 21400 nM.

Regarding `COc1cc(/C=N/n2cnc3oc(-c4ccccc4)cc3c2=N)cc(CN2CCCC2)c1O`, the GI50 is 2010 nM and the TGI was determined as 5080 nM.

In the case of `CNC(=O)OCc1c(COC(=O)NC)c(-c2ccc(Cl)c(Cl)c2)n2c1SCC2`, the GI50 is 264 nM and the TGI is 1270 nM.

Regarding `Cn1cc(-c2cnc3ccc(NC(=O)Nc4ccc(F)c(Br)c4)cc3n2)cn1`, the GI50 was 1410 nM and the TGI came out at 3860 nM.

As to `CN(C)CCNC(=O)c1ccc(-c2nc3ccc4[nH]ncc4c3c3c2CCC3)cc1`, the GI50 is 448 nM and the TGI stood at 1490 nM.

Regarding `Cc1c(F)c(N)c2c(=O)cc(-c3ccc(NC(=O)CN(C)C)c(F)c3)oc2c1F`, the GI50 is 57.7 nM and the TGI was 394 nM.

Take `CCOc1cccc(/C=N/NC(=O)c2ccccc2Nc2ccnc(C(F)(F)F)c2)c1O`: the GI50 is 271 nM and the TGI is 9280 nM.

For `COc1cc(/C=C/c2cc(/C=C/c3ccc(O)c(OC)c3)n(-c3ccccc3)n2)ccc1O`, the GI50 was 271 nM and the TGI amounted to 908 nM.

Take `COc1ccc2c(c1)c(-c1nc(-c3cn(C)c4ncccc34)cs1)cn2CCCN1CCCCC1`: the GI50 is 1800 nM and the TGI amounted to 3550 nM.

Take `Cc1ccc2c(c1)C(=O)/C(=C/c1ncc([N+](=O)[O-])n1C)O2`: the GI50 is 1850 nM and the TGI amounted to 4340 nM.

For the compound `CN1CCN(Cc2ccc(NC(=O)c3cncc(C#Cc4cnc(N)c5ccc(C#N)cc45)c3)cc2C(F)(F)F)CC1`, the GI50 is 60.8 nM and the TGI came to 627 nM.

For the compound `CCCCC(=O)OCC1OC(n2cnc3c(=S)nc[nH]c32)C(OC(=O)CCCC)C1OC(=O)CCCC` (centres undefined), the GI50 was 215 nM and the TGI came to 1520 nM.

With `O=C(NCCOCCOCCNc1cccc2c1C(=O)N(C1CCCNC1=O)C2=O)c1cc2c(o1)C(=O)c1ccccc1C2=O` (centres undefined), the GI50 is 1610 nM and the TGI is 4430 nM.

`O=C1/C(=C/c2ccc(Br)cc2)C=C(c2ccccc2)N1CCc1ccccc1`: the GI50 was 1270 nM and the TGI worked out at 7800 nM.

`COc1ccc2[nH]c(O)c(/C=c3/cc4c(c(-c5cc(OC)c(OC)c(OC)c5)n3)=Nc3ccccc3-4)c2c1`: the GI50 was 2620 nM and the TGI is 11700 nM.

Consider `Cc1ccc(CS/C(=C\c2ccc([N+](=O)[O-])cc2)C(=O)c2ccc(F)cc2)cc1`, for which the GI50 is 3410 nM and the TGI came out at 16400 nM.

As to `COc1cccc(/C=N/NC(=O)c2ccccc2Nc2ccnc(C(F)(F)F)c2)c1O`, the GI50 was 218 nM and the TGI was found to be 9620 nM.

Take `CC1=C(CCCNS(C)(=O)=O)C2=C(C)C3(CC3)[C@@](C)(O)C(=O)C2=C1`: the GI50 is 354 nM and the TGI was 1660 nM.

As to `O=C(CN1CCOCC1)Nc1ccc(Cn2nnc3c2C(=O)c2nnn(Cc4ccc(NC(=O)CN5CCOCC5)cc4)c2C3=O)cc1`, the GI50 was 208 nM and the TGI was 550 nM.

Values taken from PubChem BioAssay (NCI).
